Values quoted from earlier work in patent publication US20030198685A1 (priority 2002, published 2003).
Like-named read-outs stand apart in the source and are kept apart here.

Key:
[1] = after supplementation
[2] = female rats, constant infusion
[3] = not given; remark: listed apart in the source
[4] = system: prostate and seminal vesicle weights; levator ani muscles
[5] = Caucasian group of hypogonadal men
[6] = 300 mg/wk for six weeks
[7] = pharmacological doses, HIV-infected men
[8] = patients on dialysis
[9] = nandrolone use
[10] = not given; remark: listed apart in the source
[11] = system: androgen receptor; conditions: seminal vesicle; parent versus 5-alpha-reduced metabolite

Q: With `C[C@]12CC[C@H]3[C@@H](CCC4=C[C@@H](O)CC[C@@]43C)[C@@H]1CC[C@@H]2O` [4-androstenediol] as the molecule, how does the “human serum testosterone levels” value (human) read?
A: elevations

Q: What about the “urine testosterone concentration relative to 4-androstenedione” value [1] of the same molecule?
A: 10 fold

Q: For `C[C@]12CCC(=O)C=C1CC[C@@H]1[C@@H]2CC[C@]2(C)C(=O)CC[C@@H]12` [4-androstenedione], which serum testosterone (supplementation) is on record?
A: elevations

Q: With `C[C@]12CC[C@H]3[C@@H](CC=C4C[C@@H](O)CC[C@@]43C)[C@@H]1CC[C@@H]2O` [5-androstenediol] as the molecule, how does the “proportion of protein in the body composition” value [2] read?
A: increased

Q: Which plasma testosterone ([3]; 50 mg dose of DHEA) does the source give for `C[C@]12CC[C@H](O)CC1=CC[C@@H]1[C@@H]2CC[C@]2(C)C(=O)CC[C@@H]12` [DHEA, dehydro-epiandrosterone] here?
A: levels similar to those observed in young women

Q: What about the “increase of plasma delta 4-androstenedione” value ([3]; 50 mg or 200 mg DHEA) of the same molecule?
A: significant and dose dependent

Q: And the “plasma estrogens, particularly estradiol” value ([3]; 50 mg or 200 mg DHEA)?
A: significant and dose dependent increase

Q: What about the plasma testosterone ([3]; 200 mg dose of DHEA) of the same molecule?
A: slightly below the levels observed in normal men

Q: What about the “increase of plasma dihydrotestosterone levels” value ([3]; both doses of DHEA) of the same molecule?
A: small

Q: For `C[C@@H]1CC2=CC(=O)CC[C@@H]2[C@H]2CC[C@]3(C)[C@@H](O)CC[C@H]3[C@@H]21` [MENT, 7α-methyl-19-nor-testosterone], which “androgenic potency relative to testosterone” value ([4]; measured by prostate and seminal vesicle weights) is on record?
A: four- to five-times

Q: And the “anabolic potency relative to testosterone” value ([4]; measured in the levator ani muscles)?
A: ten-times

Q: And the “sexual interest and activity, spontaneous erection” value [5]?
A: significant increases

Q: What does the source list for `CCCCCCC(=O)O[C@H]1CC[C@H]2[C@@H]3CCC4=CC(=O)CC[C@]4(C)[C@H]3CC[C@]12C` [TE, testosterone enanthate]?
A: body circumferences with significant increases (of fifteen) [6]: shoulders; sexual interest and activity, spontaneous erection [5]: significant increases

Q: Which results are given for `CCCCCCCCCC(=O)O[C@H]1CC[C@H]2[C@@H]3CCC4=CC(=O)CC[C@@H]4[C@H]3CC[C@]12C` [nandrolone decanoate, 19-nor-testosterone decanoate]?
A: total weight, lean body mass, body cell mass, muscle size and strength [7]: significant gains; body circumferences with significant increases (of fifteen) [6]: shoulders and chest

Q: For `C[C@]12CC[C@H]3[C@@H](CCC4=CC(=O)CC[C@@H]43)[C@@H]1CC[C@@H]2O` [nandrolone, 19-nor-testosterone], which “lean body mass compared with placebo” value [8] is on record?
A: increased significantly

Q: What about the effect on sperm [9] of the same molecule?
A: azoospermia

Q: What about the energy expenditure [2] of the same molecule?
A: increased

Q: What about the “decrease in HDL-cholesterol” value ([10]; body builders) of the same molecule?
A: 25-27%

Q: What about the lean body mass ([10]; body builders ingesting nandrolone) of the same molecule?
A: Superior increases

Q: For `C[C@]12CC[C@H]3[C@@H](CCC4=CC(=O)CC[C@@]43C)[C@@H]1CC[C@@H]2O` [testosterone], which “change of affinity to the androgen receptor on 5-alpha-reduction” value [11] is on record?
A: increasing by seven- to eight-fold

Q: And the “proportion of protein in the body composition” value [2]?
A: increased
